One assay has as its target human SSTR-5 (Homo sapiens, UniProt P35346). The assay is described as follows: Somatostatin receptor binding assay, [125I-Tyr11]somatostatin-14, membranes of transfected CHO-K1 cells. Conditions: 0.05 nM [125I-Tyr11]somatostatin-14, 30 min at 30° C., Ki=IC50/[1+(LC/LEC)], read-out: Ki hSSTR-5.
The next assay addresses human SSTR-3 (Homo sapiens, UniProt P32745). The description is as above. To be noted: 0.05 nM [125I-Tyr11]somatostatin-14, 30 min at 30° C., Ki=IC50/[1+(LC/LEC)], read-out: Ki hSSTR-3.

One may read the Ki as a dissociation constant, usually derived from enzyme kinetics or from competition with a known ligand.

Positions of bridges follow the written chain, without caps; N, C: chain ends. Non-standard residues stand in square brackets, D forms with d. Residues, ends and D or L forms follow the SMILES beside them.

Sequence of human SSTR-5 (P35346 whole entry): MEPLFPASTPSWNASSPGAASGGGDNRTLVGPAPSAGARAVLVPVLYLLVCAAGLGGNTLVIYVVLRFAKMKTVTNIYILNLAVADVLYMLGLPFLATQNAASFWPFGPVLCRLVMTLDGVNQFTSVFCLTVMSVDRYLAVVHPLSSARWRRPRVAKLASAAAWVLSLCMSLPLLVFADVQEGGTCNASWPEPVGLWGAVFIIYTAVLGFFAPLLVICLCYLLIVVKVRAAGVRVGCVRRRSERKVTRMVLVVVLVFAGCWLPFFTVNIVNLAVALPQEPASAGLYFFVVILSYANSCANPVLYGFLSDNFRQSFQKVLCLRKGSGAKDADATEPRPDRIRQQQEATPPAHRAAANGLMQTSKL
Sequence of human SSTR-3 (P32745 whole entry): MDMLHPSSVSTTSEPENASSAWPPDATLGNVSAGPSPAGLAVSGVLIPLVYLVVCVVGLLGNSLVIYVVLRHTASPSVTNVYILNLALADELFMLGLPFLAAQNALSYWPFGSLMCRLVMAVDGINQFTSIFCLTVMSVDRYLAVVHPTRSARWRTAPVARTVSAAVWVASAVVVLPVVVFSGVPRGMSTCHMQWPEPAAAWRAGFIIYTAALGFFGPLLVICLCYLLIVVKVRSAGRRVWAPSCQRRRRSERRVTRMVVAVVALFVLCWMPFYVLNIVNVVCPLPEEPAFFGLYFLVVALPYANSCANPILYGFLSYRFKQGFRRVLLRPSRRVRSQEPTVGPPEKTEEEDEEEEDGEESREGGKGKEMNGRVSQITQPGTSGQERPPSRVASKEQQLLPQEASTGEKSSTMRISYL

In the case of `C[C@@H](O)[C@@H]1NC(=O)[C@H](CCCCN)NC(=O)[C@@H](Cc2c[nH]c3ccccc23)NC(=O)[C@H](Cc2ccccc2)NC(=O)[C@H](Cc2ccccc2)NC(=O)[C@@H](N)CSSC[C@@H](C(N)=O)NC(=O)[C@H](Cc2ccccc2)NC1=O` [BIM-23268, H-Cys-Phe-Phe-D-Trp-Lys-Thr-Phe-Cys-NH2] (H-CFF[dW]KTFC-NH2; disulfide 1-8), the Ki on human SSTR-5 is 0.38 nM; at human SSTR-3, 62 nM.

The values are drawn from patent publication US7238666B2, “Method of inhibiting fibrosis with a somatostatin agonist” (Societe de Conseils de Recherches et d'Applications …, priority 1996, dated 2007).
